# Test results taken from PubChem BioAssay (NCI).
# Several values for one entry are separate records, joined by “and”; a condition that tells them apart may be missing. Equal entries are not always repeated.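 Exposure lasted 48 hours, with cells grown in 96-well plates and compounds tested at five concentrations. Abbreviation: GI50, concentration required for 50% inhibition of growth. TGI: concentration producing complete growth inhibition.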
# Tests used:
# Experiment in all cases: growth of human tumour cells (NCI), 48 h
# ACHN renal = tested on: ACHN renal
# SNB-19 CNS = tested on: SNB-19 CNS
# HT29 colon = tested on: HT29 colon
# RXF 393 renal = tested on: RXF 393 renal
# SF-295 CNS = tested on: SF-295 CNS
# K-562 leukemia = tested on: K-562 leukemia
# NCI-H226 lung = tested on: NCI-H226 lung
# U251 CNS = tested on: U251 CNS
# SF-539 CNS = tested on: SF-539 CNS
# SF-268 CNS = tested on: SF-268 CNS
Compound,TGI (ACHN renal),GI50 (SNB-19 CNS),TGI (SNB-19 CNS),GI50 (HT29 colon),TGI (HT29 colon),TGI (RXF 393 renal),GI50 (SF-295 CNS),TGI (SF-295 CNS),GI50 (K-562 leukemia) [µM],TGI (K-562 leukemia),TGI (NCI-H226 lung),TGI (U251 CNS),GI50 (SF-539 CNS),TGI (SF-539 CNS),TGI (SF-268 CNS),GI50 (ACHN renal) [µM],GI50 (RXF 393 renal) [µM],GI50 (NCI-H226 lung) [µM],GI50 (U251 CNS) [µM],GI50 (SF-268 CNS) [µM]
O=c1c(Cl)c(Cl)cnn1-c1ccccc1,11.6 µM and 13.5 µM,4.93 µM and > 23.2 µM,13.7 µM and > 41.7 µM,1.75 µM and 3.77 µM,3.38 µM and 8.06 µM,4.21 µM and 5.38 µM,5.18 µM and 16 µM,9.7 µM and 32.3 µM,2.13,5.14 µM and 4.67 µM,12.9 µM and 21.4 µM,3.37 µM and 7.42 µM,4.74 µM and 9.8 µM,10.2 µM and 23.2 µM,15.7 µM and 25.6 µM,–,–,–,–,–
ClCc1ccccc1CSc1ncnc2nc[nH]c12,> 60 µM,> 60 µM,> 60 µM,> 60 µM,> 60 µM,> 60 µM,> 60 µM,> 60 µM,> 60,> 60 µM,> 60 µM,> 60 µM,> 60 µM,> 60 µM,> 60 µM,> 60,> 60,> 60,> 60,> 60
COc1cc2c(c(O)c1C)C(=O)C(Cl)=CC2=O,13.9 µM,–,> 86.4 µM,–,21.9 µM,13.1 µM,–,34.4 µM,–,8.64 µM,36.5 µM,47.3 µM,–,33.5 µM,40 µM,–,–,–,–,–
Cc1c(C(=O)/C=C/c2cccc3ccccc23)[n+](=O)c2ccccc2n1[O-],29.4 µM,–,29.7 µM,–,24.8 µM,21.9 µM,–,29.7 µM,–,36.5 µM,27.9 µM,29.1 µM,–,23.8 µM,29.3 µM,–,–,–,–,–
CC1=C2[C@@H](CC1)[C@]1(C)O[C@@](C(C)C)(C[C@H]1OC(=O)[C@H](C)O)[C@H]2OC(=O)/C=C/c1ccccc1,13 µM,17.1 µM,37.2 µM,13.6 µM,30 µM,2.41 µM,11.5 µM,24.8 µM,12.5,49.8 µM,29.6 µM,28 µM,15 µM,30.9 µM,23.1 µM,0.145,0.111,12.9,14.2,2.13
CC1=C[C@@H]2Cc3occc3C(C)(C)[C@@H]2CC1,29.4 µM,–,> 10 µM,–,30.3 µM,33.7 µM,–,34.1 µM,–,42.6 µM,32.8 µM,32.7 µM,–,58.7 µM,38.3 µM,–,–,–,–,–
O=C1Oc2cc3c(c4cccc1c24)OCN(c1ccc(Cl)cc1)C3,> 100 µM,–,> 100 µM,–,> 100 µM,> 84.2 µM,–,> 100 µM,–,53.2 µM,> 100 µM,> 79.5 µM,–,23.9 µM,> 100 µM,–,–,–,–,–
CC(C)(C)C1=NC(S)NC(CCC(=O)Nc2ccccc2[N+](=O)[O-])=C1 (stereo not given),> 100 µM,–,> 100 µM,–,> 100 µM,> 100 µM,–,> 100 µM,–,> 100 µM,> 100 µM,> 100 µM,–,> 100 µM,> 100 µM,–,–,–,–,–
CCCCn1/c(=N/C(=S)N(C)C)ss/c1=N\C(=S)N(C)C,> 100 µM,–,> 100 µM,–,> 100 µM,> 100 µM,–,> 100 µM,–,> 100 µM,> 100 µM,> 100 µM,–,> 100 µM,> 100 µM,–,–,–,–,–
CCOC(=O)c1cc(-c2ccc([N+](=O)[O-])cc2)n(-c2ccc(C(=O)O)c(O)c2)c1C,9.38 µM,5.66 µM,19.1 µM,3.23 µM,13.3 µM,20.3 µM,3.72 µM,19.6 µM,3.82,> 100 µM,33.9 µM,14.1 µM,10.6 µM,22.5 µM,19.6 µM,2.94,5.95,11.2,3.61,4.69
CN(C)CCNc1nc2ccccc2c2[nH]c3ccccc3c12,1.21 µM,1.04 µM,8 µM,0.188 µM,> 77.1 µM,5.41 µM,0.439 µM,2.91 µM,0.748,9.23 µM,4.74 µM,2.04 µM,0.891 µM,3.06 µM,1.82 µM,0.19,1.27,0.587,0.386,0.293
CC1(C)N=C(N)N=C(N)N1c1ccc(CCCCc2ccc(S(=O)(=O)F)cc2Cl)c(Cl)c1,142 µM,–,125 µM,–,298 µM,187 µM,–,192 µM,–,64.3 µM,158 µM,53.2 µM,–,13.9 µM,29.3 µM,–,–,–,–,–
Cc1nc2nnc(C)n2c2c1C(=O)Nc1ccccc1N2,> 100 µM,–,> 100 µM,–,> 100 µM,> 100 µM,–,> 100 µM,–,> 100 µM,> 100 µM,> 100 µM,–,> 100 µM,> 100 µM,–,–,–,–,–
COc1cc2c(cc1O)[C@H](Cc1ccc(Oc3cc(C[C@H]4c5cc(OC)c(OC)cc5CCN4C)ccc3OC)cc1)NCC2,23.6 µM,–,31.9 µM,–,19.4 µM,18.3 µM,–,24.2 µM,–,19.1 µM,26.2 µM,24.3 µM,–,22.8 µM,23.7 µM,–,–,–,–,–
COc1cc([C@@H]2c3cc4c(cc3[C@@H](NC(=O)c3cccc([N+](=O)[O-])c3)C3COC(=O)[C@@H]32)OCO4)cc(OC)c1O (stereo not given in full),1.62 µM,–,14.1 µM,–,11.7 µM,9.97 µM,–,3.99 µM,–,> 100 µM,1.02 µM,1.26 µM,–,1.33 µM,10.7 µM,–,–,–,–,–
N#Cc1nc(-c2ccc(F)cc2)oc1S(=O)(=O)N1CCOCC1,3.12 µM,13.7 µM,28 µM,3.11 µM,> 100 µM,2.92 µM,16.1 µM,30.6 µM,1.7,10.9 µM,19.9 µM,31.5 µM,1.88 µM,4.02 µM,25.4 µM,1.74,1.49,4.33,14.5,11
C[Si](C)(C)c1ccc(CC2(Cc3ccc([Si](C)(C)C)cc3)CCNC2)cc1,9.37 µM,–,13.7 µM,–,4.08 µM,3.14 µM,–,6.86 µM,–,84.6 µM,3.34 µM,3.02 µM,–,10.4 µM,4.71 µM,–,–,–,–,–
CCCNC(=O)OCc1c(COC(=O)NCCC)c(-c2ccc(Cl)c(Cl)c2)n2c1CCC2,6.28 µM,–,39.1 µM,–,19.2 µM,9.35 µM,–,12.3 µM,–,26.6 µM,7.53 µM,28.9 µM,–,11.3 µM,21.5 µM,–,–,–,–,–
